Measurements reported in patent US11958835B1, “6-(6-bromo-2-oxo-2H-chromen-3-yl)-4-(4-chlorophenyl)-2-alkoxynicotinonitrile as antimicrobial agents” (KING FAISAL UNIVERSITY, priority 2023, dated 2024).

Assays:
Type in all cases: cell-based
Escherichia coli = assay: agar plate disc-diffusion, antibacterial, Escherichia coli; conditions: DMSO control zone subtracted; for inhibition zone, Escherichia coli, A: A = concentration of comp. = 10,000 μL; for inhibition zone, Escherichia coli, B: B = concentration of comp. = 30.000 μL; for inhibition zone, Escherichia coli, C: C = concentration of comp. = 50,000 μL
Protocol: (§1) The agar plate disc-diffusion method was applied. Sterilized filter papers (6 mm in diameter) were wetted with 10 μL of a solution of 6-(6-bromo-2-oxo-2H-chromen-3-yl)-4-(4-chlorophenyl)-2-ethoxynicotinonitrile (1) and 6-(6-bromo-2-oxo-2H-chromen-3-yl)-4-(4-chlorophenyl)-2-methoxynicotinonitrile (2) to be tested, containing […], and the discs were allowed to air dry. The discs were then placed onto the surface of agar plates (nutrient agar for bacteria and Sabouraud's dextrose agar for fungi) seeded with the test organism. Each plate contained 15 mL of the agar medium, previously seeded with 0.2 mL of the broth culture of each organism pregrown for 18 hours. The plates were incubated at 37° C. for 48 hours, and 72 hours for fungi. The inhibition zones were measured in millimeters. Discs impregnated with DMSO were used as a control, and its inhibition zone was subtracted from the tested compound actual inhibition zone.
(§2) Their antibacterial screened against gram positive bacteria namely Bacillus cereus and Staphylococcus aureus and gram-negative bacterial strains namely Pseudomonas aeruginosa and Escherichia coli, while their antifungal activity screened against Aspergillus flavus and Chrysosporium keratinophilum as shown in Tables 1 and 2 using ciprofloxacin as a reference.

Aspergillus flavus = assay: agar plate disc-diffusion, antifungal, Aspergillus flavus; conditions: DMSO control zone subtracted; for inhibition zone, Aspergillus flavus, A: A = concentration of comp. = 10,000 μL; for inhibition zone, Aspergillus flavus, B: B = concentration of comp. = 30.000 μL; for inhibition zone, Aspergillus flavus, C: C = concentration of comp. = 50,000 μL
Protocol: as §1, §2

Staphylococcus aureus = assay: agar plate disc-diffusion, antibacterial, Staphylococcus aureus; conditions: DMSO control zone subtracted; for inhibition zone, Staphylococcus aureus, A: A = concentration of comp. = 10,000 μL; for inhibition zone, Staphylococcus aureus, B: B = concentration of comp. = 30.000 μL; for inhibition zone, Staphylococcus aureus, C: C = concentration of comp. = 50,000 μL
Protocol: as §1, §2

[1] = tested on: Chrysosporium keratinophilum; assay: agar plate disc-diffusion, antifungal, Chrysosporium keratinophilum; conditions: DMSO control zone subtracted; for inhibition zone, Chrysosporiam keratinophilum, A: A = concentration of comp. = 10,000 μL; for inhibition zone, Chrysosporiam keratinophilum, B: B = concentration of comp. = 30.000 μL; for inhibition zone, Chrysosporiam keratinophilum, C: C = concentration of comp. = 50,000 μL
Protocol: as §1, §2

Pseudomonas aeruginosa = assay: agar plate disc-diffusion, antibacterial, Pseudomonas aeruginosa; conditions: DMSO control zone subtracted; for inhibition zone, Pseudomonas aeruginosa, A: A = concentration of comp. = 10,000 μL; for inhibition zone, Pseudomonas aeruginosa, B: B = concentration of comp. = 30.000 μL; for inhibition zone, Pseudomonas aeruginosa, C: C = concentration of comp. = 50,000 μL
Protocol: as §1, §2

Bacillus cereus = assay: agar plate disc-diffusion, antibacterial, Bacillus cereus; conditions: DMSO control zone subtracted; for inhibition zone, Bacillus Cereus, A: A = concentration of comp. = 10,000 μL; for inhibition zone, Bacillus Cereus, B: B = concentration of comp. = 30.000 μL; for inhibition zone, Bacillus Cereus, C: C = concentration of comp. = 50,000 μL
Protocol: as §1, §2

COc1nc(-c2cc3cc(Br)ccc3oc2=O)cc(-c2ccc(Cl)cc2)c1C#N [Compound 2, 6-(6-bromo-2-oxo-2H-chromen-3-yl)-4-(4-chlorophenyl)-2-methoxynicotinonitrile]
inhibition zone, Escherichia coli, A (Escherichia coli): 27 millimeters | inhibition zone, Escherichia coli, B (Escherichia coli): 34 millimeters | inhibition zone, Escherichia coli, C (Escherichia coli): 48 millimeters | inhibition zone, Aspergillus flavus, A (Aspergillus flavus): 19 millimeters | inhibition zone, Aspergillus flavus, B (Aspergillus flavus): 23 millimeters | inhibition zone, Aspergillus flavus, C (Aspergillus flavus): 33 millimeters | inhibition zone, Staphylococcus aureus, A (Staphylococcus aureus): 17 millimeters | inhibition zone, Staphylococcus aureus, B (Staphylococcus aureus): 23 millimeters | inhibition zone, Staphylococcus aureus, C (Staphylococcus aureus): 29 millimeters | inhibition zone, Chrysosporiam keratinophilum, A [1]: 25 millimeters | inhibition zone, Chrysosporiam keratinophilum, B [1]: 29 millimeters | inhibition zone, Chrysosporiam keratinophilum, C [1]: 40 millimeters | inhibition zone, Pseudomonas aeruginosa, A (Pseudomonas aeruginosa): 25 millimeters | inhibition zone, Pseudomonas aeruginosa, B (Pseudomonas aeruginosa): 31 millimeters | inhibition zone, Pseudomonas aeruginosa, C (Pseudomonas aeruginosa): 35 millimeters | inhibition zone, Bacillus Cereus, A (Bacillus cereus): 25 millimeters | inhibition zone, Bacillus Cereus, B (Bacillus cereus): 27 millimeters | inhibition zone, Bacillus Cereus, C (Bacillus cereus): 35 millimeters

CCOc1nc(-c2cc3cc(Br)ccc3oc2=O)cc(-c2ccc(Cl)cc2)c1C#N [Compound 1, 6-(6-bromo-2-oxo-2H-chromen-3-yl)-4-(4-chlorophenyl)-2-ethoxynicotinonitrile]
inhibition zone, Escherichia coli, A (Escherichia coli): 27 millimeters | inhibition zone, Escherichia coli, B (Escherichia coli): 37 millimeters | inhibition zone, Escherichia coli, C (Escherichia coli): 45 millimeters | inhibition zone, Aspergillus flavus, A (Aspergillus flavus): 20 millimeters | inhibition zone, Aspergillus flavus, B (Aspergillus flavus): 25 millimeters | inhibition zone, Aspergillus flavus, C (Aspergillus flavus): 34 millimeters | inhibition zone, Staphylococcus aureus, A (Staphylococcus aureus): 18 millimeters | inhibition zone, Staphylococcus aureus, B (Staphylococcus aureus): 22 millimeters | inhibition zone, Staphylococcus aureus, C (Staphylococcus aureus): 27 millimeters | inhibition zone, Chrysosporiam keratinophilum, A [1]: 24 millimeters | inhibition zone, Chrysosporiam keratinophilum, B [1]: 27 millimeters | inhibition zone, Chrysosporiam keratinophilum, C [1]: 39 millimeters | inhibition zone, Pseudomonas aeruginosa, A (Pseudomonas aeruginosa): 21 millimeters | inhibition zone, Pseudomonas aeruginosa, B (Pseudomonas aeruginosa): 26 millimeters | inhibition zone, Pseudomonas aeruginosa, C (Pseudomonas aeruginosa): 37 millimeters | inhibition zone, Bacillus Cereus, A (Bacillus cereus): 15 millimeters | inhibition zone, Bacillus Cereus, B (Bacillus cereus): 20 millimeters | inhibition zone, Bacillus Cereus, C (Bacillus cereus): 29 millimeters

O=C(O)c1cn(C2CC2)c2cc(N3CCNCC3)c(F)cc2c1=O [Cip., ciprofloxacin, reference compound]
inhibition zone, Escherichia coli, A (Escherichia coli): 30 millimeters | inhibition zone, Escherichia coli, B (Escherichia coli): 39 millimeters | inhibition zone, Escherichia coli, C (Escherichia coli): 60 millimeters | inhibition zone, Aspergillus flavus, A (Aspergillus flavus): 29 millimeters | inhibition zone, Aspergillus flavus, B (Aspergillus flavus): 30 millimeters | inhibition zone, Aspergillus flavus, C (Aspergillus flavus): 42 millimeters | inhibition zone, Staphylococcus aureus, A (Staphylococcus aureus): 43 millimeters | inhibition zone, Staphylococcus aureus, B (Staphylococcus aureus): 44 millimeters | inhibition zone, Staphylococcus aureus, C (Staphylococcus aureus): 53 millimeters | inhibition zone, Chrysosporiam keratinophilum, A [1]: 29 millimeters | inhibition zone, Chrysosporiam keratinophilum, B [1]: 30 millimeters | inhibition zone, Chrysosporiam keratinophilum, C [1]: 53 millimeters | inhibition zone, Pseudomonas aeruginosa, A (Pseudomonas aeruginosa): 29 millimeters | inhibition zone, Pseudomonas aeruginosa, B (Pseudomonas aeruginosa): 30 millimeters | inhibition zone, Pseudomonas aeruginosa, C (Pseudomonas aeruginosa): 53 millimeters | inhibition zone, Bacillus Cereus, A (Bacillus cereus): 29 millimeters | inhibition zone, Bacillus Cereus, B (Bacillus cereus): 30 millimeters | inhibition zone, Bacillus Cereus, C (Bacillus cereus): 42 millimeters
